Read-outs that look alike come from different tables or passages of the source.
Assays:
AAV viral genomes = test: Titer of capsids encapsidating the viral genome by nuclease treatment and qPCR after induction with doxycycline and tamoxifen; type: cell-based; conditions: 1000 uM MSX; Fuji cell culture media lacking Gln; compared to T223 cells not exposed to MSX
Protocol: (§1) Capsid ELISA was performed to determine total capsid titer. Nuclease treatment and qPCR were performed to determine the titer of capsids encapsidating the viral genome (e.g., the payload construct). […] Fuij 7-2 cell media with 4 mM glutamax was used in the cell culture.

T223 cells = tested on: T223 cells
Text: FIG. 9 provides a schematic for GS repression/inhibition for the pathways described in FIG. 8. A GS-KO P2 cell line is independently transfected with the various Rep/Cap GS constructs (see above and FIG. 8). P3 cells are selected in cell culture media lacking glutamine (-Gln) to select for cells expressing a higher level of GS.

AAV capsid = test: Capsid ELISA for total capsid titer after induction; type: cell-based; conditions: 1000 uM MSX; Fuji cell culture media lacking Gln; compared to T223 cells not exposed to MSX
Protocol: as §1

CS(=N)(=O)CC[C@H](N)C(=O)O (some centres unmarked) [MSX, methionine sulfoximine]
viral genomes (vg/mL) in T223 cells (AAV viral genomes): increased levels | MSX concentration from which survival is impacted (T223 cells; P3 T223 cells expressing wild type GS): ≥ 250 µM | MSX concentration from which survival is impacted (T223 cells; T223 cells expressing full length GS, selective media): ≥ 250 µM | reduction of viability (T223 cells; T223 cells, 500 uM MSX (of 50, 100, 250, 500 uM tested)): most effective in reducing viability | viral particles (Capsids/mL) in T223 cells (AAV capsid): increased levels

— US20250129127A1, “Systems for Amplification of AAV Rep and Cap Proteins” (priority 2022, published 2025)
